{
  "source": "paper PMC6779273",
  "about": "“Emodepside has sex-dependent immobilizing effects on adult Brugia malayi due to a differentially spliced binding pocket in the RCK1 region of the SLO-1 K channel” (PLoS Pathogens, 2019)",
  "key": {"[1]": {"target": "T1, Bma-SLO-1A (SLO-1 K channel, splice variant A) (Brugia malayi, UniProt A0A0H5S223)", "T1 construct": "full-length slo-1a splice variant", "assay": "two-electrode voltage clamp, Xenopus laevis oocytes expressing slo-1a (small but detectable outward current)", "format": "cell-based", "source_text": "two-electrode voltage clamp, Xenopus laevis oocytes expressing slo-1a (small but detectable outward current) on Bma-SLO-1A (SLO-1 K channel, splice variant A) | When we expressed slo-1a, or slo-1a with slo-1f (Fig 4C & 4D), we found much smaller, but still detectable currents."}, "[2]": {"target": "T2, Bma-SLO-1F (SLO-1 K channel, splice variant F) (Brugia malayi, UniProt A0A0J9Y9H3)", "T2 construct": "full-length slo-1f splice variant", "assay": "two-electrode voltage clamp, Xenopus laevis oocytes expressing slo-1f (activation of outward current)", "format": "cell-based"}},
  "data": [
    {"smiles": "CC(C)C[C@H]1C(=O)O[C@H](Cc2ccc(N3CCOCC3)cc2)C(=O)N(C)[C@@H](CC(C)C)C(=O)O[C@H](C)C(=O)N(C)[C@@H](CC(C)C)C(=O)O[C@H](Cc2ccc(N3CCOCC3)cc2)C(=O)N(C)[C@@H](CC(C)C)C(=O)O[C@H](C)C(=O)N1C", "note": "[emodepside]", "values": [
      {"measurement": "EC50", "setting": "[1]", "result": "> 30", "unit": "µM"},
      {"measurement": "EC50", "setting": "[2]", "result": "5 ± 1", "unit": "µM"}
    ]}
  ]
}
